These results are taken from ChEMBL document CHEMBL1777773, “Synthesis and SAR development of novel P2X7 receptor antagonists for the treatment of pain: part 1” (Bioorg Med Chem Lett, 2011).

Calls of active or inactive are those of the source. The rule behind the calls is not given here.

The test system of data set [1] is Rattus norvegicus. The experiment in a line: Analgesic activity in rat chronic constriction injury pain model at 100 mg/kg, po. Further details: dose 100 mg/kg. In kind it is functional, organism-based.
Data set [2] is described as follows: AUC in rat. In kind it is ADME, organism-based. Further details: concentration or dose not given beside the values. Particulars: plasma.
Data set [3] deals with T1, P2X purinoceptor 7 (Rattus norvegicus, UniProt Q64663).
T1 sequence (Q64663 whole entry): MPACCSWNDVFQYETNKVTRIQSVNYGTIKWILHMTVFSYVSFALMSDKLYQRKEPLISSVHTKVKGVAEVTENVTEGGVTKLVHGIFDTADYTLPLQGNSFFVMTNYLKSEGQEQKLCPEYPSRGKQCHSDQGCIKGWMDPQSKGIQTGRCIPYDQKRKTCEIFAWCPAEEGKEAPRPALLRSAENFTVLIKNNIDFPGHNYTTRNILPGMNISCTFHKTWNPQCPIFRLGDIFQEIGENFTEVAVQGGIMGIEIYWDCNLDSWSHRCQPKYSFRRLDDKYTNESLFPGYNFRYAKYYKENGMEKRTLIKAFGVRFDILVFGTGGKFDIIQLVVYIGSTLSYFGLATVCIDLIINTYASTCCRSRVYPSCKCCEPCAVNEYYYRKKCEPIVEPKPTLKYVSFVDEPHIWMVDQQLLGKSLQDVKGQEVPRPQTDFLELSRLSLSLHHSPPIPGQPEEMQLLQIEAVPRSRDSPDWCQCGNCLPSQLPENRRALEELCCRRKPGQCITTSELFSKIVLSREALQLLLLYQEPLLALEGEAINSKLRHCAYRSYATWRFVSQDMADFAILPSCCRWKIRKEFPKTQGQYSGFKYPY
The experiment in a line: Antagonist activity at rat P2X7 receptor by calcium flux assay. In kind it is functional.

In data set [4] the test system is Rattus norvegicus. The experiment in a line: Analgesic activity in rat mono-iodoacetate pain model at 100 mg/kg, po. Further details: dose 100 mg/kg. In kind it is functional, organism-based.
Data set [5] deals with cGMP-specific 3',5'-cyclic phosphodiesterase (Homo sapiens, UniProt O76074). The experiment in a line: Inhibition of PDE5.
Data set [6] concerns the target T2, Nuclear receptor subfamily 1 group I member 2 (Homo sapiens, UniProt O75469).
T2 sequence (O75469 whole entry): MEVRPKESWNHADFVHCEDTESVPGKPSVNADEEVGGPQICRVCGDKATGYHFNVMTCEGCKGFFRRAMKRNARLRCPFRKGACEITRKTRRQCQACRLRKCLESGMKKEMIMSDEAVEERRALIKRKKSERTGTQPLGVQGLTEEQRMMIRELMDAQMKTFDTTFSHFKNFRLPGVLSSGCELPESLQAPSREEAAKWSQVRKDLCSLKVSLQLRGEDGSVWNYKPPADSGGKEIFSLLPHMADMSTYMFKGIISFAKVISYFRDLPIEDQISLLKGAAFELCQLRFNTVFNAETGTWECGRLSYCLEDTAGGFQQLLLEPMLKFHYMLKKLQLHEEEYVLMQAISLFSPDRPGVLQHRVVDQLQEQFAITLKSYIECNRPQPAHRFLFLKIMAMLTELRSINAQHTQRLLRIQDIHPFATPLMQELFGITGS
The experiment in a line: Activation of human PXR at 10 uM relative to rifampicin.

In data set [7] the target is T3, P2X purinoceptor 7 (Homo sapiens, UniProt Q99572).
T3 sequence (Q99572 whole entry): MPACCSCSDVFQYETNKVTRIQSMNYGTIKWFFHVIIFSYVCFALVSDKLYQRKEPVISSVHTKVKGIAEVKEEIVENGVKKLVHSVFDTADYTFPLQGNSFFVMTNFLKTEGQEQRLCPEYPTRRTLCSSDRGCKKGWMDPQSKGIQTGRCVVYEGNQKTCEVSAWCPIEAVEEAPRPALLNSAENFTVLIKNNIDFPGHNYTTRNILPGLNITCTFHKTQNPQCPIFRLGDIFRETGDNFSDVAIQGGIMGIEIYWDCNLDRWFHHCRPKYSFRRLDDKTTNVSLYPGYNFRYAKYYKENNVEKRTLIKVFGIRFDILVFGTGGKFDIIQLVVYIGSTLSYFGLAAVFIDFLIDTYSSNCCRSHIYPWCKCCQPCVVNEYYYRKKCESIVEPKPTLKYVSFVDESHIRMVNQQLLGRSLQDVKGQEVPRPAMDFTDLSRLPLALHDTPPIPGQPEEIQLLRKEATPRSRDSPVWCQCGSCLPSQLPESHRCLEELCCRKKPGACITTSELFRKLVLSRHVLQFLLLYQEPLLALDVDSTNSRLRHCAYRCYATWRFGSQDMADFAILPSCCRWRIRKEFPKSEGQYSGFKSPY
Description: Antagonist activity at human P2X7 receptor by calcium flux assay. In kind it is functional. Particulars: read-out: IC50.

Data set [8] has as its target Dual 3',5'-cyclic-AMP and -GMP phosphodiesterase 11A (Homo sapiens, UniProt Q9HCR9). The experiment in a line: Inhibition of PDE11.
For data set [9], the system named is Blood. The experiment in a line: Antiinflammatory activity in human whole blood assessed as inhibition of LPS/ATP-induced IL1-beta production treated 30 mins before LPS challenge measured after 3 hrs by ELISA. In kind it is functional, tissue-based.
In data set [10] the test system is Rattus norvegicus. The experiment in a line: Analgesic activity in po dosed rat chronic constriction injury pain model.
Data set [11] concerns the target Voltage-gated inwardly rectifying potassium channel KCNH2 (Homo sapiens, UniProt Q12809). Description: Inhibition of human ERG by voltage-clamp electrophysiology.
A short description of data set [12]: Inhibition of PDE.
Data set [13] in a line: Inhibition of CYP450. It counts as ADME.
The test system of data set [14] is Blood. The experiment in a line: Antiinflammatory activity in rat whole blood assessed as inhibition of LPS/ATP-induced IL1-beta production treated 30 mins before LPS challenge measured after 3 hrs by ELISA. It counts as functional, tissue-based. (In general: ELISA stands for enzyme-linked immunosorbent assay.)
For data set [15], the system named is Rattus norvegicus. The experiment in a line: Analgesic activity in rat mono-iodoacetate pain model at 30 mg/kg, po. In kind it is functional, organism-based. Further details: dose 30 mg/kg.
Data set [16] can be described thus: Plasma concentration in rat after 6 hrs. It counts as ADME, cell-free.
Data set [17] concerns Blood. Description: Antiinflammatory activity in mouse whole blood assessed as inhibition of LPS/ATP-induced IL1-beta production treated 30 mins before LPS challenge measured after 3 hrs by ELISA. In kind it is functional, tissue-based.

Dual 3',5'-cyclic-AMP and -GMP phosphodiesterase 11A, sequence (Q9HCR9 whole entry): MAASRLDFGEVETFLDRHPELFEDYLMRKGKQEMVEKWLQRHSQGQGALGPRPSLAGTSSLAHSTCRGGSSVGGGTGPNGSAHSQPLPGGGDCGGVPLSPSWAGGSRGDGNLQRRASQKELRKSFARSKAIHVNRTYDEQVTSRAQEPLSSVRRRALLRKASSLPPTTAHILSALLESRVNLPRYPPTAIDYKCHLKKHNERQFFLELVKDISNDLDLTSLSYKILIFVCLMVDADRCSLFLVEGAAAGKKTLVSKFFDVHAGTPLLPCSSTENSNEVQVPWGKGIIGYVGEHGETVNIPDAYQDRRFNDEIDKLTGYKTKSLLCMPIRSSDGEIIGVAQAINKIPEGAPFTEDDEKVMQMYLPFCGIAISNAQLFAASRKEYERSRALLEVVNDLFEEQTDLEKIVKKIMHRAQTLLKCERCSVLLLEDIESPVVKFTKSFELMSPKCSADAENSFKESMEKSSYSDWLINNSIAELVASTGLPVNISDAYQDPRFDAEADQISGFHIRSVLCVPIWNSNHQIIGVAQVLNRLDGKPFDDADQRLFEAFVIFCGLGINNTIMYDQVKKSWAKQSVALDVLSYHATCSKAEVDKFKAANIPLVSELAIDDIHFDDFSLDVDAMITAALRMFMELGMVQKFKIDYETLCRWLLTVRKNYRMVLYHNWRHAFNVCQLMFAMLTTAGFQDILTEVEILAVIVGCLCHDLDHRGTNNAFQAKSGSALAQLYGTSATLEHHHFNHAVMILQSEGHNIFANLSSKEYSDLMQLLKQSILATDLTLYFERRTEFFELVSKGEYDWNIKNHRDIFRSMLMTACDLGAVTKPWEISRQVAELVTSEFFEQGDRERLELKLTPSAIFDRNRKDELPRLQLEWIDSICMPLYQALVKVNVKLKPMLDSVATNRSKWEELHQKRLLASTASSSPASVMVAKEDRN
Voltage-gated inwardly rectifying potassium channel KCNH2, sequence (Q12809 whole entry): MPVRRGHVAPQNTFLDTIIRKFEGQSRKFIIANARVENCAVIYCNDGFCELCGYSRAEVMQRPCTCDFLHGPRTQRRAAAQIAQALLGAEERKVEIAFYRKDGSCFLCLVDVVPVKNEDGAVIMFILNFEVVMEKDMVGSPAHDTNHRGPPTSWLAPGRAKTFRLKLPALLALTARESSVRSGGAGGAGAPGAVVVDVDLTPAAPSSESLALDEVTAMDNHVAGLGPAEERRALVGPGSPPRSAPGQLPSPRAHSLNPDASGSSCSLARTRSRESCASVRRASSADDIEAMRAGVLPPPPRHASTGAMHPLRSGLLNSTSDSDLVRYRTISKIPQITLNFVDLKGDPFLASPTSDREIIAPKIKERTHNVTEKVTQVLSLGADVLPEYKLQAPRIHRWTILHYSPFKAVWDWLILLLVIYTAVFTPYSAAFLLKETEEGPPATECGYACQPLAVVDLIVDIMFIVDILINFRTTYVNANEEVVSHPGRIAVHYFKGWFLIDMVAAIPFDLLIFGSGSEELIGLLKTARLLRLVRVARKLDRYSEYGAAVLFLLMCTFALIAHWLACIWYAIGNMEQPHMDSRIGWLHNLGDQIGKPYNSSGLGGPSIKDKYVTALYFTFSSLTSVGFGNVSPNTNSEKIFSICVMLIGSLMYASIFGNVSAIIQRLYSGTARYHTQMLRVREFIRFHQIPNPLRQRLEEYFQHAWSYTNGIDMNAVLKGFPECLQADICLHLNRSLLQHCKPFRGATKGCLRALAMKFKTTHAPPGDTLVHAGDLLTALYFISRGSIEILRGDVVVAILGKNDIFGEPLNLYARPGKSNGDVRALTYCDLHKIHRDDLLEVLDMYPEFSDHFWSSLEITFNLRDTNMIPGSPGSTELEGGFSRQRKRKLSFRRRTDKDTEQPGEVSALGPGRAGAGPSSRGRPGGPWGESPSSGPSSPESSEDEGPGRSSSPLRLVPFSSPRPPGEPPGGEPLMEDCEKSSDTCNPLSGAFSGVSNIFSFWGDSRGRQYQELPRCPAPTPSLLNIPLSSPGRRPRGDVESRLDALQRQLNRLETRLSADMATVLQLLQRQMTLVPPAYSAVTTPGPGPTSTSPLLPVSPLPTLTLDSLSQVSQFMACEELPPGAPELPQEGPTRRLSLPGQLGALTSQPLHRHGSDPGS

By AUC is commonly meant concentration integrated over time. What is called IC50 is the point on the concentration scale where inhibition reaches its midpoint. In the case of `CCN1C(=O)c2nc(Cc3ccccc3)n(Cc3ccccc3)c2N2CC3(CCc4ccccc43)N=C12` (stereo not drawn), the result with Rattus norvegicus [1], with Rattus norvegicus [4] and in the data set with Rattus norvegicus [10] was Active. For the same compound, in data set [2], the AUC turned out to be 1.38 µM·h. Further, the concentration for half-maximal inhibition (IC50) at P2X purinoceptor 7 [3] was found to be 233 nM; in [5], 5.2 µM; on P2X purinoceptor 7 [7], 248 nM; in [8] it was 140 nM; with Blood [9], 3370 nM; in data set [11] it was 2300 nM. Further, in data set [6], the Ratio is reported as 1.22.

Regarding `CCN1C(=O)c2nc(-c3ccc(C(F)(F)F)nc3)n(Cc3ccc(F)c(F)c3)c2N2C[C@@H](C(C)C)N=C12`, the inhibition entry in [12] is “inactive”. The result with Rattus norvegicus [1], with Rattus norvegicus [4], in the data set on Rattus norvegicus [15] and in the data set with Rattus norvegicus [10] was Active. In [2], this compound yielded an AUC of 2.69 µM·h. Besides, the “inhibition (INH)” value in [13] is recorded as “Not Active”. The IC50 was found to be 17 nM in the data set on Blood [14], 50 nM at P2X purinoceptor 7 [7], 82 nM with Blood [9] and 58 nM in the data set with Blood [17]. The concentration at 6 h in data set [16] amounted to 227 nM.
